Measurements from PubChem BioAssay (NCI).
Values after ≈ are worked out from the molar mass of the structure shown.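 Tested at 5 concentrations; 48 h exposure; 96-well plates; endpoints linearly interpolated, else capped at highest concentration. GI50 is the concentration that inhibits growth by half. TGI: concentration producing complete growth inhibition.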 Where a SMILES comes first, the peptide text is derived from it.

Tests used:
Experiment in all cases: growth of human tumour cells (NCI), 48 h
OVCAR-3 ovarian = tested on: OVCAR-3 ovarian
SNB-19 CNS = tested on: SNB-19 CNS
KM12 colon = tested on: KM12 colon
SW-620 colon = tested on: SW-620 colon
786-0 renal = tested on: 786-0 renal
HL-60(TB) leukemia = tested on: HL-60(TB) leukemia
SF-539 CNS = tested on: SF-539 CNS
SK-OV-3 ovarian = tested on: SK-OV-3 ovarian
SK-MEL-5 melanoma = tested on: SK-MEL-5 melanoma
HCC-2998 colon = tested on: HCC-2998 colon
NCI-H23 lung = tested on: NCI-H23 lung
M14 melanoma = tested on: M14 melanoma
HS 578T breast = tested on: HS 578T breast
OVCAR-4 ovarian = tested on: OVCAR-4 ovarian
SN12C renal = tested on: SN12C renal
TK-10 renal = tested on: TK-10 renal
NCI/ADR-RES ovarian = tested on: NCI/ADR-RES ovarian
OVCAR-5 ovarian = tested on: OVCAR-5 ovarian
EKVX NSCLC = tested on: EKVX NSCLC
A498 renal = tested on: A498 renal
SK-MEL-28 melanoma = tested on: SK-MEL-28 melanoma
A549 NSCLC = tested on: A549 NSCLC
HCT-15 colon = tested on: HCT-15 colon
CCRF-CEM leukemia = tested on: CCRF-CEM leukemia
SNB-75 CNS = tested on: SNB-75 CNS
CAKI-1 renal = tested on: CAKI-1 renal
LOX IMVI melanoma = tested on: LOX IMVI melanoma
SR leukemia = tested on: SR leukemia
MOLT-4 leukemia = tested on: MOLT-4 leukemia
NCI-H226 lung = tested on: NCI-H226 lung
UO-31 renal = tested on: UO-31 renal
OVCAR-8 ovarian = tested on: OVCAR-8 ovarian
MCF7 breast = tested on: MCF7 breast
RPMI-8226 leukemia = tested on: RPMI-8226 leukemia
BT-549 breast = tested on: BT-549 breast
SF-268 CNS = tested on: SF-268 CNS
K-562 leukemia = tested on: K-562 leukemia
HT29 colon = tested on: HT29 colon
U251 CNS = tested on: U251 CNS
PC-3 prostate = tested on: PC-3 prostate
IGROV1 ovarian = tested on: IGROV1 ovarian
RXF 393 renal = tested on: RXF 393 renal
UACC-62 melanoma = tested on: UACC-62 melanoma
NCI-H460 lung = tested on: NCI-H460 lung
ACHN renal = tested on: ACHN renal
SK-MEL-2 melanoma = tested on: SK-MEL-2 melanoma
HOP-92 NSCLC = tested on: HOP-92 NSCLC
NCI-H522 lung = tested on: NCI-H522 lung
T-47D breast = tested on: T-47D breast
DU-145 prostate = tested on: DU-145 prostate

O=C1/C(=C/c2cccc3ccccc23)Cc2ccccc21
TGI (OVCAR-3 ovarian): 91.3 µM
TGI (SNB-19 CNS): 64 µM
TGI (KM12 colon): > 100 µM
TGI (SW-620 colon): > 100 µM
TGI (786-0 renal): 48.3 µM
TGI (HL-60(TB) leukemia): > 100 µM
TGI (SF-539 CNS): 79.4 µM
TGI (SK-OV-3 ovarian): 47.2 µM
TGI (SK-MEL-5 melanoma): > 100 µM
TGI (HCC-2998 colon): > 100 µM
TGI (NCI-H23 lung): 65.8 µM
TGI (M14 melanoma): > 100 µM
TGI (HS 578T breast): 73.3 µM
TGI (OVCAR-4 ovarian): 53 µM
TGI (SN12C renal): > 100 µM
TGI (TK-10 renal): > 100 µM
TGI (NCI/ADR-RES ovarian): > 100 µM
TGI (OVCAR-5 ovarian): > 100 µM
TGI (EKVX NSCLC): > 100 µM
TGI (A498 renal): > 100 µM
TGI (SK-MEL-28 melanoma): > 100 µM
TGI (A549 NSCLC): > 100 µM
TGI (HCT-15 colon): > 100 µM
TGI (CCRF-CEM leukemia): > 100 µM
TGI (SNB-75 CNS): > 100 µM
TGI (CAKI-1 renal): > 100 µM
TGI (LOX IMVI melanoma): > 100 µM
TGI (SR leukemia): > 100 µM
TGI (MOLT-4 leukemia): > 100 µM
TGI (NCI-H226 lung): 49.6 µM
TGI (UO-31 renal): > 100 µM
TGI (OVCAR-8 ovarian): > 100 µM
TGI (MCF7 breast): 38.9 µM
TGI (RPMI-8226 leukemia): > 100 µM
TGI (BT-549 breast): 29.9 µM
TGI (SF-268 CNS): 65.7 µM
TGI (K-562 leukemia): > 100 µM
TGI (HT29 colon): > 100 µM
TGI (U251 CNS): 52 µM
TGI (PC-3 prostate): 54.3 µM
TGI (IGROV1 ovarian): > 100 µM
TGI (RXF 393 renal): 39.2 µM
TGI (UACC-62 melanoma): > 100 µM
TGI (NCI-H460 lung): > 100 µM
TGI (ACHN renal): > 100 µM

CC(=O)NC(C(=O)N1CCCC1C(=O)O)C(C)C (stereo not drawn) (Ac-Val-Pro-OH; configuration not given here)
GI50 (SNB-75 CNS): 0.032 µg/mL
TGI (SNB-75 CNS): 66.7 µg/mL
GI50 (UACC-62 melanoma): 22.4 µg/mL (≈ 87.5 µM)
TGI (UACC-62 melanoma): 72.4 µg/mL

N=C(N)c1ccc(-c2ccc(-c3cc(Cl)cc(Cl)c3)s2)nc1
GI50 (HL-60(TB) leukemia): 2.12 µM
TGI (HL-60(TB) leukemia): 4.95 µM
GI50 (SK-OV-3 ovarian): 2.6 µM
TGI (SK-OV-3 ovarian): 8.15 µM
GI50 (SK-MEL-2 melanoma): 2.7 µM
TGI (SK-MEL-2 melanoma): 7.02 µM
GI50 (OVCAR-5 ovarian): 1.68 µM
TGI (OVCAR-5 ovarian): 3.05 µM
GI50 (A549 NSCLC): 2.07 µM
TGI (A549 NSCLC): 4.56 µM
GI50 (CCRF-CEM leukemia): 2.39 µM
TGI (CCRF-CEM leukemia): 5.86 µM
GI50 (SNB-75 CNS): 1.47 µM
TGI (SNB-75 CNS): 3.03 µM
GI50 (HOP-92 NSCLC): 3.43 µM
TGI (HOP-92 NSCLC): 19.4 µM
GI50 (RPMI-8226 leukemia): 2.31 µM
TGI (RPMI-8226 leukemia): 5.26 µM
GI50 (NCI-H522 lung): 2.16 µM
TGI (NCI-H522 lung): 4.73 µM
GI50 (T-47D breast): 2.12 µM
TGI (T-47D breast): 4.99 µM
GI50 (DU-145 prostate): 1.88 µM
TGI (DU-145 prostate): 3.33 µM

COc1ccc(C2C3=C(CCCC3=O)N(c3ccccc3)C3=C2C(=O)CCC3)cc1
TGI (OVCAR-3 ovarian): > 100 µM
TGI (SNB-19 CNS): > 100 µM
TGI (KM12 colon): > 100 µM
TGI (SW-620 colon): > 100 µM
TGI (786-0 renal): > 100 µM
TGI (HL-60(TB) leukemia): > 100 µM
TGI (SF-539 CNS): > 100 µM
TGI (SK-OV-3 ovarian): > 100 µM
TGI (NCI-H23 lung): > 100 µM
TGI (M14 melanoma): > 100 µM
TGI (HS 578T breast): > 100 µM
TGI (OVCAR-4 ovarian): > 100 µM
TGI (SN12C renal): > 100 µM
TGI (TK-10 renal): > 100 µM
TGI (NCI/ADR-RES ovarian): > 100 µM
TGI (OVCAR-5 ovarian): > 100 µM
TGI (EKVX NSCLC): > 100 µM
TGI (A498 renal): > 100 µM
TGI (SK-MEL-28 melanoma): > 100 µM
TGI (A549 NSCLC): > 100 µM
TGI (HCT-15 colon): > 100 µM
TGI (CCRF-CEM leukemia): > 100 µM
TGI (SNB-75 CNS): > 100 µM
TGI (CAKI-1 renal): > 100 µM
TGI (HOP-92 NSCLC): > 100 µM
TGI (LOX IMVI melanoma): > 100 µM
TGI (SR leukemia): > 100 µM
TGI (MOLT-4 leukemia): > 100 µM
TGI (NCI-H226 lung): > 100 µM
TGI (UO-31 renal): > 100 µM
TGI (MCF7 breast): > 100 µM
TGI (RPMI-8226 leukemia): > 100 µM
TGI (BT-549 breast): > 100 µM
TGI (SF-268 CNS): > 100 µM
TGI (K-562 leukemia): > 100 µM
TGI (HT29 colon): > 100 µM
TGI (U251 CNS): > 100 µM
TGI (PC-3 prostate): > 100 µM
TGI (IGROV1 ovarian): > 100 µM
TGI (RXF 393 renal): 78.7 µM
TGI (UACC-62 melanoma): > 100 µM
TGI (NCI-H460 lung): > 100 µM
TGI (ACHN renal): > 100 µM
